Source: PMC8894198, “Biosynthetic Microcin J25 Exerts Strong Antibacterial, Anti-Inflammatory Activities, Low Cytotoxicity Without Increasing Drug-Resistance to Bacteria Target” (Frontiers in Immunology, 2022)
In brackets after ≈: the same amount, converted by molar mass. Several values for one entry are separate records, joined by “and”; a condition that tells them apart may be missing. Equal entries are not always repeated. Where a SMILES comes first, the peptide text is derived from it. Bridges are numbered along the chain shown (N, C = ends).

What was measured:
[1] = test system: E. coli AZ1; assay type: cell-based; conditions: source pig tissue
Protocol: (§1) The minimum inhibitory concentration (MIC) refers to the lowest concentration that can produce a significant hindrance to bacterial growth in a drug sensitivity test by adopting a broth dilution, with certain refinements and modifications based on the previous description ([25], [26]). In short, MccJ25 was dissolved in sterilized distilled water (SDW), serial 2-fold dilutions were prepared in Mueller-Hinton broth (MHB) through a 96-well microtiter plate, and the final concentration of MccJ25 was maintained in the range of 0.003125 to 256 μg/mL. Then, 2 μL of standard and clinically relevant overnight broth cultures of bacteria were inoculated into each well at a concentration of 5 × 10^6 CFU/mL. Microtiter plates were incubated at 37°C for one full day. Two groups were set up: positive (medium with inoculum) and negative (medium only) controls. The minimum bactericidal concentration (MBC) was measured in LB medium and refers to the first drug dilution value at which the initial bacterial concentration was reduced by 99.99%. The final analysis was determined by the results of three replicated and independent experiments. To further assess and clarify the antimicrobial activity of MccJ25, the protective ability against E. coli adhesion, live/dead assay, and killing curve were performed, the detailed methods were provided in Supplementary Materials .

[2] = test system: Salmonella CATT LX1; assay type: cell-based; conditions: source mastitis pathogens
Protocol: as §1

[3] = test system: E. coli SWI 535; assay type: cell-based; conditions: source pig tissue
Protocol: as §1

[4] = test system: Salmonella CATT LX5; assay type: cell-based; conditions: source mastitis pathogens
Protocol: as §1

[5] = test system: Salmonella CATT LX2; assay type: cell-based; conditions: source mastitis pathogens
Protocol: as §1

[6] = test system: E. coli WWE921A-2; assay type: cell-based; conditions: source pig tissue
Protocol: as §1

[7] = test system: E. coli CATT921A-1; assay type: cell-based; conditions: source mastitis pathogens
Protocol: as §1

[8] = test system: E. coli 987P; assay type: cell-based
Protocol: as §1

[9] = test system: E. coli BRO 134; assay type: cell-based; conditions: source broiler stool
Protocol: as §1

[10] = test system: E. coli SWI 437; assay type: cell-based; conditions: source pig stool
Protocol: as §1

[11] = test system: E. coli CVCC1522; assay type: cell-based
Protocol: as §1

[12] = test system: E. coli LKFZ F2; assay type: cell-based; conditions: source pig stool
Protocol: as §1

[13] = test system: E. coli 521ZQE; assay type: cell-based; conditions: source pig tissue, three independent experiments
Protocol: as §1

[14] = test system: Salmonella CATT LX9; assay type: cell-based; conditions: source mastitis pathogens
Protocol: as §1

[15] = test system: Salmonella CATT W14; assay type: cell-based; conditions: source mastitis pathogens
Protocol: as §1

[16] = test system: E. coli CVCC1543; assay type: cell-based
Protocol: as §1

[17] = test system: S. pullorum CVCC1791; test: MIC broth dilution, standard strain; assay type: cell-based, Salmonella pullorum; conditions: lowest MIC value, highly sensitive standard strain
Protocol: as §1

[18] = test system: E. coli BRO 528; test: MIC/MBC, clinical isolate resistant to colistin sulfate, lincomycin and tilmicosin; assay type: cell-based; conditions: source broiler stool
Protocol: as §1

[19] = test system: E. coli SWI 541; test: as above; assay type: cell-based; conditions: source pig stool
Protocol: as §1

[20] = test system: E. coli SWI 441; test: as above; assay type: cell-based; conditions: source pig stool
Protocol: as §1

[21] = test system: E. coli SWI 531; test: as above; assay type: cell-based; conditions: source pig tissue
Protocol: as §1

[22] = test system: E. coli K88; test: MIC variability (cross-resistance) after 5 days at sub-MIC; assay type: cell-based; conditions: bacterial cells treated with MccJ25 (0.25 × MIC) for 5 days
Protocol: A 1:100 dilution of the bacteria was performed daily in the above MHB. Aliquots of the culture medium were used daily for 5 days thereafter to determine the MICs of ampicillin, tetracycline, aureomycin, and kanamycin. This study was performed based on our previous study ([29]).

[23] = test system: plasmid DNA (pGEM-bGAL); conditions: 400 ng plasmid DNA, 1 h room temperature, 1% agarose gel
Protocol: Based on the previously worked out method ([27]), briefly, gel retardation experiments were carried out, in which 400 ng of plasmid DNA (pGEM-bGAL; Promega) was increasingly bound to […] of binding buffer in MccJ25 binding and incubated for 1 h at room temperature. Then, […] of local loading buffer in each sample was […], and a 12 μL aliquot was bound to a 1% agarose gel. Finally, 0.5× Tris-borate-EDTA buffer was used for electrophoresis.

[24] = LB medium, 99.99% reduction, three independent experiments
[25] = broth dilution in MHB, 37°C, three independent experiments
[26] = broth dilution in MHB, 37°C, one day, three independent experiments

Work on `CC[C@H](C)[C@H](NC(=O)CNC(=O)[C@@H](NC(=O)[C@H](Cc1ccccc1)NC(=O)[C@H](Cc1ccc(O)cc1)NC(=O)[C@@H]1CCC(=O)NCC(=O)NCC(=O)N[C@@H](C)C(=O)NCC(=O)N[C@@H](Cc2c[nH]cn2)C(=O)N[C@@H](C(C)C)C(=O)N2CCC[C@H]2C(=O)N1)C(C)C)C(=O)NCC(=O)N[C@H](C(=O)N1CCC[C@H]1C(=O)N[C@H](C(=O)N[C@@H](CO)C(=O)N[C@@H](Cc1ccccc1)C(=O)N[C@@H](Cc1ccc(O)cc1)C(=O)NCC(=O)O)[C@@H](C)CC)[C@@H](C)O` [MccJ25, microcin J25] (GGAGHVPEYFVGIGTPISFYG-OH; lactam N-8 (inferred); C-terminus assumed) yielded an MBC [1, 24] of 1.000 mg/L (≈ 0.475 µM), an MIC [1, 25] of 0.500 mg/L (≈ 0.237 µM) and an MIC/MBC ([1]; ratio) of 0.500. The MBC [2, 24] was 0.250 mg/L (≈ 0.119 µM), the MIC [2, 25] was 0.060 mg/L (≈ 0.0285 µM) and the MIC/MBC ([2]; ratio) was 0.240. The MBC [3, 24] was 2.000 mg/L (≈ 0.949 µM), the MIC [3, 25] was 0.500 mg/L (≈ 0.237 µM) and the MIC/MBC ([3]; ratio) was 0.250. For the same molecule, the MBC [4, 24] was 0.125 mg/L (≈ 0.0593 µM), the MIC [4, 25] was 0.030 mg/L (≈ 0.0142 µM) and the MIC/MBC ([4]; ratio) was 0.240. The MBC [5, 24] was 0.125 mg/L (≈ 0.0593 µM), the MIC [5, 25] was 0.030 mg/L (≈ 0.0142 µM) and the MIC/MBC ([5]; ratio) was 0.240. It also gave an MBC [6, 24] of 2.000 mg/L (≈ 0.949 µM), an MIC [6, 25] of 1.000 mg/L (≈ 0.475 µM) and an MIC/MBC ([6]; ratio) of 0.500. It also gave an MBC [7, 24] of 2.000 mg/L (≈ 0.949 µM), an MIC [7, 25] of 0.250 mg/L (≈ 0.119 µM) and an MIC/MBC ([7]; ratio) of 0.125. For the same molecule, the MBC [8, 24] was 0.500 mg/L (≈ 0.237 µM), the MIC [8, 26] was 0.030 mg/L (≈ 0.0142 µM) and the MIC/MBC ([8]; ratio) was 0.060. It also gave an MBC [9, 24] of 2.000 mg/L (≈ 0.949 µM), an MIC [9, 25] of 0.250 mg/L (≈ 0.119 µM) and an MIC/MBC ([9]; ratio) of 0.125. For the same molecule, the MBC [10, 24] was 0.250 mg/L (≈ 0.119 µM), the MIC [10, 25] was 0.030 mg/L (≈ 0.0142 µM) and the MIC/MBC ([10]; ratio) was 0.120. For the same molecule, the MBC [11, 24] was 0.500 mg/L (≈ 0.237 µM), the MIC [11, 26] was 0.03 mg/L and 0.030 mg/L and the MIC/MBC ([11]; ratio) was 0.060. For the same molecule, the MBC [12, 24] was 0.500 mg/L (≈ 0.237 µM), the MIC [12, 25] was 0.250 mg/L (≈ 0.119 µM) and the MIC/MBC ([12]; ratio) was 0.500. For the same molecule, the MBC ([13]; LB medium, 99.99% reduction) was 2.000 mg/L (≈ 0.949 µM), the MIC ([13]; broth dilution in MHB, 37°C) was 0.250 mg/L (≈ 0.119 µM) and the MBC [14, 24] was 0.125 mg/L (≈ 0.0593 µM). The MIC [14, 25] was 0.060 mg/L (≈ 0.0285 µM), the MIC/MBC ([14]; ratio) was 0.480 and the MBC [15, 24] was 0.250 mg/L (≈ 0.119 µM). For the same molecule, the MIC [15, 25] was 0.060 mg/L (≈ 0.0285 µM), the MIC/MBC ([15]; ratio) was 0.240 and the MBC [16, 24] was 0.250 mg/L (≈ 0.119 µM). The MIC [16, 26] was 0.03 mg/L and 0.030 mg/L, the MIC/MBC ([16]; ratio) was 0.120 and the MIC [17] was 0.03 mg/L (≈ 0.0142 µM). For the same molecule, the MBC [18, 24] was 2.000 mg/L (≈ 0.949 µM), the MIC [18, 25] was 0.500 mg/L (≈ 0.237 µM) and the MIC/MBC ([18]; ratio) was 0.250. For the same molecule, the MBC [19, 24] was 2.000 mg/L (≈ 0.949 µM), the MIC [19, 25] was 0.500 mg/L (≈ 0.237 µM) and the MIC/MBC ([19]; ratio) was 0.250. It also gave an MBC [20, 24] of 0.500 mg/L (≈ 0.237 µM), an MIC [20, 25] of 0.060 mg/L (≈ 0.0285 µM) and an MIC/MBC ([20]; ratio) of 0.120. The MBC [21, 24] was 0.500 mg/L (≈ 0.237 µM), the MIC [21, 25] was 0.060 mg/L (≈ 0.0285 µM) and the MIC/MBC ([21]; ratio) was 0.120. For the same molecule, the “change in the MICs of ciprofloxacin, ampicillin, tetracycline and kanamycin” value [22] was “no changes were observed” and the “weight ratio (MccJ25:DNA) at which DNA migration was slightly inhibited” value [23] was “above 2.0”.
